The source of these data is PubChem BioAssay (NCI).

Test systems include IGROV1 ovarian; NCI-H23 lung; SW-620 colon; K-562 leukemia; SNB-19 CNS; UACC-62 melanoma; SK-MEL-2 melanoma; SF-539 CNS; UO-31 renal; NCI-H522 lung.
Experiment in all cases: DTP human tumour cell line panel, 48 h

“And” between values parts separate entries of the source, which are not always exact repeats. Identical values can stand only once.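 Protocol summary: plate cells (96-well), add compound at 5 concentrations, incubate 48 h, interpolate endpoints linearly. GI50: concentration for 50% inhibition of growth. TGI: total growth inhibition.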

In general, GI50 refers to the concentration at which growth is held to half of that of the control. A word on the TGI: it is the concentration at which net growth stops. The low end stands for more potent growth arrest, the high end for less potent growth arrest. Consider `COc1cc(NN=C(c2ccc(O)cc2)c2ccc(O)cc2)c([N+](=O)[O-])cc1[N+](=O)[O-]`, for which the GI50 in the test with IGROV1 ovarian is 12.7 µM; in the test with NCI-H23 lung, 13.5 µM; in the test on SW-620 colon, 15.2 µM; in the test on K-562 leukemia, 3.92 µM; in the test on SNB-19 CNS, 10.7 µM; in the test on UACC-62 melanoma, 10.6 µM. In addition, the GI50 in the test with SK-MEL-2 melanoma is 14.2 µM; in the test on SF-539 CNS, 13 µM; with UO-31 renal it was 10.4 µM; in the test with NCI-H522 lung, 8.86 µM. Besides, the total growth inhibition concentration (TGI) is 32.8 µM with IGROV1 ovarian; 34.5 µM in the test with NCI-H23 lung; 33.6 µM in the test with SW-620 colon; more than 100 µM with K-562 leukemia; 23.3 µM in the test with SNB-19 CNS; 22.6 µM with UACC-62 melanoma. For the same compound, the concentration for total growth inhibition (TGI) was determined as 30.5 µM in the test on SK-MEL-2 melanoma, 27.7 µM in the test on SF-539 CNS, 23.9 µM in the test on UO-31 renal and 29.9 µM in the test on NCI-H522 lung.

For the compound `CCSc1nc2sc(C)c(C)c2c(=O)n1-c1ccc(C(=O)O)cc1`, the total growth inhibition concentration (TGI) in the test on IGROV1 ovarian, with NCI-H23 lung, in the test with SW-620 colon, in the test with K-562 leukemia, in the test with SNB-19 CNS and in the test on UACC-62 melanoma was more than 100 µM in each case. For the same compound, the TGI with SK-MEL-2 melanoma is more than 100 µM; in the test with SF-539 CNS it was 55 µM; with UO-31 renal it was more than 100 µM; in the test on NCI-H522 lung it was 76.3 µM.

For `CCC(=O)OC1CCn2c1nc1c2C(=O)C(C)=C(N2CC2)C1=O` (centres undefined), the concentration for 50% growth inhibition (GI50) in the test with IGROV1 ovarian is 0.0573 µM; in the test with NCI-H23 lung, 0.0235 µM; in the test on SW-620 colon it was 0.0248 µM; in the test with K-562 leukemia it was 0.128 µM and 0.739 µM; in the test on SNB-19 CNS, 0.0441 µM; in the test on UACC-62 melanoma it was 0.0231 µM. The concentration for 50% growth inhibition (GI50) in the test with SK-MEL-2 melanoma was 0.038 µM; in the test with SF-539 CNS, 0.0138 µM; in the test with NCI-H522 lung, 0.0159 µM. Besides, the TGI in the test on IGROV1 ovarian was 0.237 µM and 1.25 µM; with NCI-H23 lung it was 0.0821 µM and 0.0948 µM; with SW-620 colon, 0.244 µM and 0.13 µM; in the test with SNB-19 CNS it was 1.16 µM and 0.697 µM; with UACC-62 melanoma, 0.0577 µM and 0.127 µM; in the test with SK-MEL-2 melanoma, 0.1 µM and 0.117 µM. Moreover, the TGI in the test on UO-31 renal was 0.136 µM; with NCI-H522 lung, 0.0404 µM and 0.0899 µM.

For `CC(=O)OCC1OC(OC2CC3C(C)(C)C(OC(C)=O)CC[C@]3(C)C3CCC45CC4(CC[C@H]5C(C)CC(O)C4OC4(C)C)[C@]23C)C(O)C(O)C1O` (some centres undefined), the GI50 is 2.42 µM in the test with IGROV1 ovarian; 2.55 µM with NCI-H23 lung; 3.46 µM with SW-620 colon; 4.97 µM with SNB-19 CNS; more than 60 µM in the test with UACC-62 melanoma; 4.29 µM with SK-MEL-2 melanoma. Moreover, the GI50 in the test with SF-539 CNS is 2.47 µM; with NCI-H522 lung it was 1.91 µM. Further, the concentration for total growth inhibition (TGI) was 0.829 µM and 4.56 µM in the test with IGROV1 ovarian; 10.4 µM and 6.58 µM with NCI-H23 lung; 9.98 µM and 11.3 µM in the test with SW-620 colon; 2.22 µM in the test with K-562 leukemia; 12.4 µM and 17.6 µM in the test with SNB-19 CNS; 6.17 µM and 14.6 µM in the test on SK-MEL-2 melanoma. In addition, the TGI in the test with SF-539 CNS is 8.92 µM and 6.62 µM; with UO-31 renal, 11.1 µM and 14.4 µM; in the test on NCI-H522 lung, 5.33 µM and 3.91 µM.

On to `O=C(O)CCC1COc2ccccc2O1` (centres undefined), for which the TGI in the test with IGROV1 ovarian, with NCI-H23 lung, in the test with SW-620 colon, with K-562 leukemia, in the test on SNB-19 CNS and with UACC-62 melanoma was more than 10 µM throughout. The TGI in the test with SK-MEL-2 melanoma, in the test with SF-539 CNS, in the test on UO-31 renal and in the test on NCI-H522 lung was more than 10 µM each time.

With `Nc1nc2c(c3ncccc13)C(c1cccc(Cl)c1)Cc1ncccc1-2` (centres undefined), the GI50 is 5.36 µM in the test on IGROV1 ovarian; 4.93 µM in the test on NCI-H23 lung; 0.88 µM in the test on SW-620 colon; 0.53 µM with K-562 leukemia; 2.5 µM in the test with SNB-19 CNS; 0.628 µM in the test with UACC-62 melanoma. Moreover, the GI50 was 1.84 µM with SK-MEL-2 melanoma, 1.96 µM in the test with SF-539 CNS, 3.98 µM with UO-31 renal and 0.417 µM in the test on NCI-H522 lung. For the same compound, the concentration for total growth inhibition (TGI) in the test with IGROV1 ovarian was more than 100 µM; with NCI-H23 lung, 59.4 µM; with SW-620 colon, 30.8 µM; in the test on K-562 leukemia, more than 100 µM; in the test on SNB-19 CNS, 17.7 µM; in the test with UACC-62 melanoma it was 16.6 µM. Moreover, the total growth inhibition concentration (TGI) in the test with SK-MEL-2 melanoma came to 15.4 µM; in the test on SF-539 CNS it was 7.25 µM; in the test on UO-31 renal, 34.9 µM; in the test on NCI-H522 lung it was 2.82 µM.

Take `O=S(=O)(NC(=S)Nc1ccccc1)c1ccc(N2N=C3c4ccccc4CC3C2c2cccs2)cc1` (centres undefined): the GI50 in the test with IGROV1 ovarian was 65.3 µM; with NCI-H23 lung, 17.6 µM; in the test on SW-620 colon, 30 µM; with K-562 leukemia it was 31.3 µM; with SNB-19 CNS, 33.8 µM; with UACC-62 melanoma, 18.5 µM. Moreover, the GI50 with SK-MEL-2 melanoma is 59.9 µM; with SF-539 CNS, 22.7 µM; with UO-31 renal it was 51.2 µM; in the test on NCI-H522 lung it was 32.8 µM. The TGI with IGROV1 ovarian is more than 100 µM; in the test with NCI-H23 lung it was 39.5 µM; with SW-620 colon it was more than 100 µM; with K-562 leukemia it was 56.5 µM; in the test with SNB-19 CNS, more than 100 µM; in the test on UACC-62 melanoma, 37.3 µM. Besides, the concentration for total growth inhibition (TGI) in the test with SK-MEL-2 melanoma was more than 100 µM; in the test with SF-539 CNS, 46.3 µM; with UO-31 renal, more than 100 µM; with NCI-H522 lung it was more than 100 µM.

Take `O=c1cccc(C#Cc2ccccc2)o1`: the GI50 is 9.58 µM with IGROV1 ovarian; 4.42 µM with NCI-H23 lung; 4.85 µM in the test with SW-620 colon; 40.4 µM in the test with K-562 leukemia; 10.5 µM in the test on SNB-19 CNS; 6.32 µM in the test with UACC-62 melanoma. In addition, the GI50 is 4.71 µM with SK-MEL-2 melanoma, 3.72 µM in the test on SF-539 CNS, 3.41 µM in the test on UO-31 renal and 4.06 µM in the test with NCI-H522 lung. For the same compound, the TGI in the test on IGROV1 ovarian was more than 87.3 µM; in the test on NCI-H23 lung it was 12.2 µM; with SW-620 colon it was 43.3 µM; in the test on K-562 leukemia it was more than 100 µM; in the test with SNB-19 CNS it was 37.6 µM; in the test with UACC-62 melanoma it was 19.7 µM. The TGI in the test with SK-MEL-2 melanoma is more than 33.9 µM; with SF-539 CNS it was 27.6 µM; in the test on UO-31 renal, more than 35.1 µM; in the test with NCI-H522 lung it was more than 40.4 µM.
